Values joined by “and” are separate entries in the source; they are usually repeats but may differ in a detail not shown here. Equal entries are not always repeated.
Assays:
[1] = target: T1, Gal-L-RXR (Homo sapiens, UniProt P19793); test: Gal-L-RXR fusion with Gal 4 reporter (MH100×4) in CV-1 cells; assay type: cell-based; conditions: 5 μM
T1 construct: expressed in transfected cells; host or cells: CV-1
T1 sequence (P19793 203-462): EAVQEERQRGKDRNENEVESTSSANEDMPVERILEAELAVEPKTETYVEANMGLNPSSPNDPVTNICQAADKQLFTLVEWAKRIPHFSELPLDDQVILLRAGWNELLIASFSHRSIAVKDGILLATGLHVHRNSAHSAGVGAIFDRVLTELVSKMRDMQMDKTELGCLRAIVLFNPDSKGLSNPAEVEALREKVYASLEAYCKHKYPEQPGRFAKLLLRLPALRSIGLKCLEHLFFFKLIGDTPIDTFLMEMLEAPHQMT
Protocol: The nucleic acid regions encoding the following full-length proteins were cloned into a CMV expression vector.
For GAL-L-RXR, the plasmid nucleic acids encoded amino acids Glu203 to Thr462 of human RXRα (SEQ ID NO: 4) fused to the GAL4 sequences. The junction between the carboxyl terminal section of GAL4 and the amino terminal portion of the RXR LBD had the following structure:
CV-1 African Green Monkey cells were grown in Dulbecco's Modified Eagle's medium supplemented with 10% resin-charcoal stripped fetal bovine serum (FBS), 50 U/ml penicillin G and 50 μg/ml streptomycin sulfate (DMEM-FBS) at 37° C. in 5% CO2. […]
(§1) The harvested cells were assayed for the presence of luciferase activity. […] Luciferase activity was measured by reaction of the cell lysates with luciferin in a reaction buffer comprising: 20 mM tricine, 1.07 mM Mg(CO3)4-Mg(OH)2-5H2O, 2.67 mM MgSO4.7H2O, 0.1 mM EDTA, 0.5 mM Sodium luciferin, 0.15 mg/ml Coenzyme A, 5 mM DTT, and 0.5 mM adenosine triphosphate (ATP). Resulting chemiluminescence was measured in a luminometer. […]
(§2) The transfected cells were then treated with the indicated ligands for 40 hours. Activity was measured using luciferase expression in the cotransfection assay described above. […] Thus, Gal-L-RAR or Gal-L-RXR fusions were transfected into CV-1 cells with a Gal 4 reporter (MH100×4) and the effect of different ligands was evaluated.

[2] = system: AR, mPXR, hPXR, ERα, CARβ, LXRα, PPARα, PPARβ, PPARδ, VDR and TRβ; test: Activation of other RXR heterodimers / nuclear receptors (transfection assay); assay type: cell-based
Protocol: CV-1 African Green Monkey cells were grown in Dulbecco's Modified Eagle's medium supplemented with 10% resin-charcoal stripped fetal bovine serum (FBS), 50 U/ml penicillin G and 50 μg/ml streptomycin sulfate (DMEM-FBS) at 37° C. in 5% CO2. One day prior to transfection, cells were plated to 50-80% confluence using phenol red-free DMEM-FBS. Cells were transiently transfected by lipofection as described in Forman et al., 81 Cell 687 (1995). Liposomes (N-[1-(2,3-dioleoyloxy)propyl]-N,N,N-ammonium methyl sulfate, sold by Boehringer Mannheim under the name DOTAP) were formed according to the manufacturer's instructions. […]
as §1, §2

[3] = target: T2, BAR:RXR heterodimer (Homo sapiens, UniProt P19793+Q96RI1); test: Mammalian two hybrid assay detecting recruitment of CoA; assay type: cell-based
T2 construct: expressed in transfected cells
T2 sequence (Q96RI1 1-486): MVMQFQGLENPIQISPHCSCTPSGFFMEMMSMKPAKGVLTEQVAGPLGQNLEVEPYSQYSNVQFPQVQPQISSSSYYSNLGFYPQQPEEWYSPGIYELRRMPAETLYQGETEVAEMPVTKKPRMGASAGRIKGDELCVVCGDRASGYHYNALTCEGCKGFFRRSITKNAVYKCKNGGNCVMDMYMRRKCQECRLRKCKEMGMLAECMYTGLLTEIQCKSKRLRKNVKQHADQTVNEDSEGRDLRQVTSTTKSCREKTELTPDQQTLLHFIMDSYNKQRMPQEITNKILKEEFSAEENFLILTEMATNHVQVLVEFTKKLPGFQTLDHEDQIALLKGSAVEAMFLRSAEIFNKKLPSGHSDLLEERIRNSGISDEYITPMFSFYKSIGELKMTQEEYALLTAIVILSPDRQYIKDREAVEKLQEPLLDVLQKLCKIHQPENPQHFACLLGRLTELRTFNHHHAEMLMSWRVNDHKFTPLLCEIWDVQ
T2 sequence (P19793 1-462): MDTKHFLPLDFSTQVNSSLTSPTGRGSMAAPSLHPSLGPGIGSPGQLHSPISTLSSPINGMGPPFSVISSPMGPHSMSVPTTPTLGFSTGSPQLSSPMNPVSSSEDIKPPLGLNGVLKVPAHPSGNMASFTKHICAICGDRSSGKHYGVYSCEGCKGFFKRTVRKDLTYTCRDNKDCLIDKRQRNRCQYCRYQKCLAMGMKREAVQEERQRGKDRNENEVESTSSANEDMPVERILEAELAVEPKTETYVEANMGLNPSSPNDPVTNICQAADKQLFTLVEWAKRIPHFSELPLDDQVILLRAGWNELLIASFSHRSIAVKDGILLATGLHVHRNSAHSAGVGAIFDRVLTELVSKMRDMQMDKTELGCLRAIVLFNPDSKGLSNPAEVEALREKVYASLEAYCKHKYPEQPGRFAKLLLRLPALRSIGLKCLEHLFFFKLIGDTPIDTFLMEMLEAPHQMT

[4] = target: T3, HFXR / HRXRop (Homo sapiens, UniProt P19793+Q96RI1); test: Co-transfection luciferase assay, EcRE × 6 reporter, HFXR + HRXRop;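 further: CV-1 monkey cells transfected with receptor vectors, luciferase reporter and β-galactosidase internal control, exposed to compounds about 40 h, then lysed and luminescence read in a luminometer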
T3 sequence (Q96RI1 1-486): T2 sequence (Q96RI1 1-486)
T3 sequence (P19793 1-462): T2 sequence (P19793 1-462)
Protocol: (§3) CV-1 African Green Monkey cells were grown in Dulbecco's Modified Eagle's medium supplemented with 10% resin-charcoal stripped fetal bovine serum (FBS), 50 U/ml penicillin G and 50 μg/ml streptomycin sulfate (DMEM-FBS) at 37° C. in 5% CO2. One day prior to transfection, cells were plated to 50-80% confluence using phenol red-free DMEM-FBS. Cells were transiently transfected by lipofection as described in Forman et al., 81 Cell 687 (1995). Liposomes (N-[1-(2,3-dioleoyloxy)propyl]-N,N,N-ammonium methyl sulfate, sold by Boehringer Mannheim under the name DOTAP) were formed according to the manufacturer's instructions. The liposomes contained reporter gene constructs (300 ng/10^5 cells); cytomegalovirus driven expression vectors (25 ng/10^5 cells) were added as indicated along with CMX-Bgal (500 ng/10^5 cells) as an internal control. After 2 hours the liposomes were removed and replaced with fresh media. Cells were incubated for approximately 40 hours with phenol red-free DMEM-FBS containing the indicated compounds. After exposure to the specified ligand, the cells were harvested.
(§4) The harvested cells were assayed for the presence of luciferase activity. Cells were lysed in 0.1 M KPO4 (pH 7.8), 1.0% TRITON® X-100, 1.0 mM dithiolthreitol (DTT) and 2 mM ethylenediamine tetracetic acid (EDTA). Luciferase activity was measured by reaction of the cell lysates with luciferin in a reaction buffer comprising: 20 mM tricine, 1.07 mM Mg(CO3)4-Mg(OH)2-5H2O, 2.67 mM MgSO4.7H2O, 0.1 mM EDTA, 0.5 mM Sodium luciferin, 0.15 mg/ml Coenzyme A, 5 mM DTT, and 0.5 mM adenosine triphosphate (ATP). Resulting chemiluminescence was measured in a luminometer. […] All points were assayed in triplicate and varied by less than 15%. Each experiment was repeated three or more times with similar results.
(§5) As shown below, in most cases hRXRop was recombinantly coexpressed with one other of the indicated receptor constructs, so as to permit the formation of hetero-or homodimers containing hRXRop.
(§6) Expression of the luciferase reporter gene product was detected and quantified as described above.

[5] = target: T4, MFXR / HRXRop (UniProt P19793+Q60641); test: Co-transfection luciferase assay, EcRE × 6 reporter, MFXR + HRXRop;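 further: CV-1 African green monkey cells, liposome transfection with a β-galactosidase vector serving as internal control, luciferase chemiluminescence read after roughly 40 h compound exposure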
T4 sequence (Q60641 1-488): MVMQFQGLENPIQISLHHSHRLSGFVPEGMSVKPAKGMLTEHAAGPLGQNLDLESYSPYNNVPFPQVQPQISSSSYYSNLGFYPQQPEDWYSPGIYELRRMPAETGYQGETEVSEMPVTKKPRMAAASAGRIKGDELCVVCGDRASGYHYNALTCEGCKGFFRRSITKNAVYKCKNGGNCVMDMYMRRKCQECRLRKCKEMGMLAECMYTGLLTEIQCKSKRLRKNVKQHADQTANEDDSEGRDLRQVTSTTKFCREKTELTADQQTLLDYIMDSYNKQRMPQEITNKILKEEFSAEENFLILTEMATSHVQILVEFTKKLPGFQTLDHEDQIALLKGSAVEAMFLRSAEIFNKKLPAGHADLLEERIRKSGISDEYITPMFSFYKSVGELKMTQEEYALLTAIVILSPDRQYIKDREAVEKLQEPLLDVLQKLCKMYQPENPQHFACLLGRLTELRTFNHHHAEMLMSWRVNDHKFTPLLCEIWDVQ
T4 sequence (P19793 1-462): T2 sequence (P19793 1-462)
Protocol: as §3, §4, §5, §6

Cc1cc2c(cc1/C(=C/c1ccc(C(=O)O)cc1)[Si](C)(C)C)C(C)(C)CCC2(C)C [AGN 29, (Z)-4-[2-(3,5,5,8,8-Pentamethy1-5,6,7,8-tetrahydronaphthalen-2-yl)-2-(trimethylsilyl)vinyl]benzoic Acid]
activation of RXR [1]: retained some ability to activate RXR
effect on other RXR heterodimers containing nuclear receptors [2]: no effect

CCCC/C(=C\c1ccc(C(=O)O)cc1)c1ccc2c(c1)C(C)(C)CCC2(C)C [AGN 31, 4-[2-(5,5,8,8-Tetramethyl-5,6,7,8-tetrahydronaphthalen-2-yl)hex-1-enyl]benzoic Acid]
activation of RXR [1]: retained some ability to activate RXR
effect on other RXR heterodimers containing nuclear receptors [2]: no effect

CCCCCCOc1c(\C(C)=C/C=C/C(C)=C/C(=O)O)cc(C(C)C)cc1C(C)C [AGN 34, (2E, 4E, 6Z)-7-(2-Hexyloxy-3,5-diisopropylphenyl)-3-methylocta-2,4,6-trienoic Acid]
recruitment of CoA [3]: inhibits recruitment
Fold Activation ([4]; 0.1 μM LG268 + 0.01 μM AGN 34): 2.36 fold
Reporter Activity ([4]; 0.1 μM LG268 + 0.01 μM AGN 34): 0.76
Fold Activation ([4]; 0.1 μM LG268 + 0.1 μM AGN 34): 1.45 fold
Reporter Activity ([4]; 0.1 μM LG268 + 0.1 μM AGN 34): 0.47
Fold Activation ([4]; 0.1 μM LG268 + 1 μM AGN 34): 1.23 fold
Reporter Activity ([4]; 0.1 μM LG268 + 1 μM AGN 34): 0.40
Fold Activation ([4]; 0.1 μM LG268 + 3 μM AGN 34): 1.26 fold
Reporter Activity ([4]; 0.1 μM LG268 + 3 μM AGN 34): 0.41
Fold Activation ([4]; 0.1 μM LG268 + 10 μM AGN 34): 1.22 fold
Reporter Activity ([4]; 0.1 μM LG268 + 10 μM AGN 34): 0.39
Fold Activation ([4]; 10 μM AGN 34 alone): 1.21 fold and 1.35 fold
Reporter Activity ([4]; 10 μM AGN 34 alone): 0.41 and 0.44
Fold Activation ([4]; 50 μM CDCA + 0.01 μM AGN 34): 15.00 fold
Reporter Activity ([4]; 50 μM CDCA + 0.01 μM AGN 34): 5.14
Fold Activation ([4]; 50 μM CDCA + 0.1 μM AGN 34): 11.73 fold
Reporter Activity ([4]; 50 μM CDCA + 0.1 μM AGN 34): 4.02
Fold Activation ([4]; 50 μM CDCA + 1 μM AGN 34): 7.08 fold and 5.51 fold
Reporter Activity ([4]; 50 μM CDCA + 1 μM AGN 34): 2.42
Fold Activation ([4]; 50 μM CDCA + 3 μM AGN 34): 5.78 fold
Reporter Activity ([4]; 50 μM CDCA + 3 μM AGN 34): 1.98
Fold Activation ([4]; 50 μM CDCA + 10 μM AGN 34): 6.58 fold
Reporter Activity ([4]; 50 μM CDCA + 10 μM AGN 34): 2.25
Fold Activation ([5]; 0.1 μM LG268 + 0.01 μM AGN 34): 27.08 fold
Reporter Activity ([5]; 0.1 μM LG268 + 0.01 μM AGN 34): 6.73
Fold Activation ([5]; 0.1 μM LG268 + 0.1 μM AGN 34): 1.56 fold
Reporter Activity ([5]; 0.1 μM LG268 + 0.1 μM AGN 34): 0.39
Fold Activation ([5]; 0.1 μM LG268 + 1 μM AGN 34): 1.07 fold
Reporter Activity ([5]; 0.1 μM LG268 + 1 μM AGN 34): 0.27
Fold Activation ([5]; 0.1 μM LG268 + 3 μM AGN 34): 1.04 fold
Reporter Activity ([5]; 0.1 μM LG268 + 3 μM AGN 34): 0.26
Fold Activation ([5]; 0.1 μM LG268 + 10 μM AGN 34): 1.18 fold
Reporter Activity ([5]; 0.1 μM LG268 + 10 μM AGN 34): 0.29
Fold Activation ([5]; 10 μM AGN 34 alone): 1.18 fold and 1.39 fold
Reporter Activity ([5]; 10 μM AGN 34 alone): 0.26 and 0.35
Fold Activation ([5]; 50 μM CDCA + 0.01 μM AGN 34): 19.61 fold
Reporter Activity ([5]; 50 μM CDCA + 0.01 μM AGN 34): 4.37
Fold Activation ([5]; 50 μM CDCA + 0.1 μM AGN 34): 10.99 fold
Reporter Activity ([5]; 50 μM CDCA + 0.1 μM AGN 34): 2.45
Fold Activation ([5]; 50 μM CDCA + 1 μM AGN 34): 6.19 fold and 5.26 fold
Reporter Activity ([5]; 50 μM CDCA + 1 μM AGN 34): 1.38
Fold Activation ([5]; 50 μM CDCA + 3 μM AGN 34): 5.77 fold
Reporter Activity ([5]; 50 μM CDCA + 3 μM AGN 34): 1.29
Fold Activation ([5]; 50 μM CDCA + 10 μM AGN 34): 6.11 fold
Reporter Activity ([5]; 50 μM CDCA + 10 μM AGN 34): 1.36

From US20030144360A1, “Composition and method for modulating BAR/FXR receptor activity” (Allergan Sales, Inc., priority 2001, published 2003)
